Source: patent publication US6432984B1, “Pyrazolecarboxylic acid derivatives, their preparation, pharmaceutical compositions containing them” (Sanofi-Synthelabo, priority 1999, dated 2002)

How the values were obtained:
[1] = biological target: T1, CB1 receptors present in the brain (Mus musculus, UniProt P47746); test: duration of occupation of the CB1 receptors present in the brain, in vivo after oral administration; conditions: mice, oral 10 mg/kg; for % of occupation of the receptors, 1 hour: 1 hour after administration; for % of occupation of the receptors, 24 hours: 24 hours after administration
T1 construct: from tissue; host or cells: mouse brain
T1 sequence (P47746 whole entry): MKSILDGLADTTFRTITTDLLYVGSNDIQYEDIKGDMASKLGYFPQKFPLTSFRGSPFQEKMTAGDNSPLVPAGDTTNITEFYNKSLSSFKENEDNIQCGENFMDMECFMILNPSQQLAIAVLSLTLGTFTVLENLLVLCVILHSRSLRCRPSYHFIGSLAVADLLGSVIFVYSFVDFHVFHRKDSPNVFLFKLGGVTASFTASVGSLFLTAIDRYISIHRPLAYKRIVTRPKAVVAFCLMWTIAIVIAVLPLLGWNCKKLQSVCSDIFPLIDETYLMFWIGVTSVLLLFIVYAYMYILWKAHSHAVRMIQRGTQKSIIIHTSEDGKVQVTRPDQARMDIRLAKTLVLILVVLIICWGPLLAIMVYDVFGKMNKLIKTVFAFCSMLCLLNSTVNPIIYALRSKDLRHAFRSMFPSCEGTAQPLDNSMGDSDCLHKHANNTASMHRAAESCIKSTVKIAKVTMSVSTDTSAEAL
Text: Moreover, the duration of occupation of the CB1 receptors present in the brain by the 3 compounds below was compared: […]

[2] = tested on: hypothermia induced with a cannabinoid receptor agonist (WIN 55212-2); test: antagonism of the hypothermia induced with WIN 55212-2; type: in vivo; conditions: mice; for ED50: Mus musculus, oral, WIN 55212-2 induced hypothermia; for Duration of action, 24 h, oral dose 1 mg/kg: oral dose 1 mg/kg
Text: In this test, the activity and the duration of action of 3 compounds were compared.

[3] = biological target: T2, CB1 cannabinoid receptors (Homo sapiens, UniProt P21554); test: in vitro affinity for CB1 cannabinoid receptors (conditions of Devane et al.)
T2 sequence (P21554 whole entry): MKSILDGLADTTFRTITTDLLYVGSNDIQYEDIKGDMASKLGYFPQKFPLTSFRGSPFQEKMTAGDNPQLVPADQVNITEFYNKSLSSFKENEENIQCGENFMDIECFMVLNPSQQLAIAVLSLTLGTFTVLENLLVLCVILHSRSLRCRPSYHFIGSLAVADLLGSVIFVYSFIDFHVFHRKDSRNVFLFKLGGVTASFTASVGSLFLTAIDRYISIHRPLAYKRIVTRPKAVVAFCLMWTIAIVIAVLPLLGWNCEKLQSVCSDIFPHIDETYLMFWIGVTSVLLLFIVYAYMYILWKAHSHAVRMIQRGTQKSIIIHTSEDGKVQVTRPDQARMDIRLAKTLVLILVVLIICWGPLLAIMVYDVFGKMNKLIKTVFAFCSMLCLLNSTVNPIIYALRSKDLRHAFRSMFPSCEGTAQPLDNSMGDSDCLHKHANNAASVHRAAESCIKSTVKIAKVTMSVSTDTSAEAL

[4] = biological target: T2, CB1 cannabinoid receptors; test: models of adenylate-cyclase inhibition; type: biochemical; conditions: as described in Rinaldi-Carmona et al. 1996
Text: More particularly, the compound of the present invention, in its native form or in the form of one of its pharmaceutically acceptable salts, is a powerful and selective antagonist of the CB1 cannabinoid receptors.

Structure (SMILES) | % of occupation of the receptors, 1 hour [1] | % of occupation of the receptors, 24 hours [1] | ED50 [2] | Duration of action, 24 h, oral dose 1 mg/kg ([2]; 24 h after administration) | Duration of action, 24 h, oral dose 10 mg/kg ([2]; oral dose 10 mg/kg, 24 h after administration) | Ki [3] | % of occupation of the receptors, 24 hours ([1]; 10 mg/kg) | % of occupation of the receptors, 24 hours ([1]; listed as compound of formula (I), 10 mg/kg) | antagonist nature in models of adenylate-cyclase inhibition [4]
Cc1c(C(=O)NN2CCCCC2)nn(-c2ccc(Cl)cc2Cl)c1-c1ccc(Br)cc1 [Compound A, reference compound] | 89% | 4% | 0.3 mg/kg | not active | active | 8 nM | – | – | –
CCc1c(C(=O)NN2CCCCC2)nn(-c2ccc(Cl)cc2Cl)c1-c1ccc(Br)cc1 [Compound of formula (I), N-piperidino-5-(4-bromophenyl)-1-(2,4-dichlorophenyl)-4-ethylpyrazole-3-carboxamide] | 82% | – | 0.3 mg/kg | active | – | 5.4 nM | 44% | 44% | antagonist
